Reference: ChEMBL document CHEMBL4308841, “Synthesis, in vitro antiproliferative activity, and kinase inhibitory effects of pyrazole-containing diarylureas and diarylamides” (Eur J Med Chem, 2018)

Legend:
M14 = test: Growth inhibition of human M14 cells incubated for 48 hrs by sulforhodamine B assay; format: functional, cell-based; conditions: M14, 48 h
SK-MEL-5 = test: Growth inhibition of human SK-MEL-5 cells incubated for 48 hrs by sulforhodamine B assay; format: functional, cell-based; conditions: SK-MEL-5, 48 h
MOLT-4 = test: Growth inhibition of human MOLT4 cells assessed as cell growth at 100 uM incubated for 48 hrs by sulforhodamine B assay relative to control; format: functional; conditions: MOLT-4, 48 h, read-out: Activity
NCI-H460 = test: Growth inhibition of human NCI-H460 cells assessed as cell growth at 1 uM incubated for 48 hrs by sulforhodamine B assay relative to control; format: functional; conditions: NCI-H460, 48 h, read-out: Activity
ACHN = test: Growth inhibition of human ACHN cells assessed as cell growth at 1 uM incubated for 48 hrs by sulforhodamine B assay relative to control; format: functional; conditions: read-out: Activity
SK-OV-3 = test: Growth inhibition of human SKOV3 cells assessed as cell growth at 100 uM incubated for 48 hrs by sulforhodamine B assay relative to control; format: functional; conditions: SK-OV-3, 48 h, read-out: Activity
COLO 205 = test: Growth inhibition of human COLO205 cells assessed as cell growth at 0.01 uM incubated for 48 hrs by sulforhodamine B assay relative to control; format: functional; conditions: COLO 205, 48 h, read-out: Activity
OVCAR-8 = test: Growth inhibition of human OVCAR8 cells assessed as cell growth at 1 uM incubated for 48 hrs by sulforhodamine B assay relative to control; format: functional; conditions: OVCAR-8, 48 h, read-out: Activity
LOX IMVI [1] = test: Growth inhibition of human LOXIMVI cells assessed as cell growth at 100 uM incubated for 48 hrs by sulforhodamine B assay relative to control; format: functional; conditions: read-out: Activity
HL-60(TB) [2] = test: Growth inhibition of human HL-60(TB) cells assessed as cell growth at 100 uM incubated for 48 hrs by sulforhodamine B assay relative to control; format: functional; conditions: HL-60, 48 h, read-out: Activity
UACC-62 = test: Growth inhibition of human UACC62 cells assessed as cell growth at 0.01 uM incubated for 48 hrs by sulforhodamine B assay relative to control; format: functional; conditions: UACC-62, 48 h, read-out: Activity
MDA-MB-435 [3] = test: Growth inhibition of human MDA-MB-435 cells incubated for 48 hrs by sulforhodamine B assay; format: functional, cell-based; conditions: MDA-MB-435, 48 h
NCI/ADR-RES = test: Growth inhibition of human NCI/ADR-RES cells assessed as cell growth at 0.01 uM incubated for 48 hrs by sulforhodamine B assay relative to control; format: functional; conditions: read-out: Activity
786-0 = test: Growth inhibition of human 786-0 cells assessed as cell growth at 0.1 uM incubated for 48 hrs by sulforhodamine B assay relative to control; format: functional; conditions: 786-0, 48 h, read-out: Activity
HCT-116 = test: Growth inhibition of human HCT116 cells assessed as cell growth at 100 uM incubated for 48 hrs by sulforhodamine B assay relative to control; format: functional; conditions: HCT-116, 48 h, read-out: Activity
SK-MEL-28 = test: Growth inhibition of human SK-MEL-28 cells assessed as cell growth at 0.01 uM incubated for 48 hrs by sulforhodamine B assay relative to control; format: functional; conditions: SK-MEL-28, 48 h, read-out: Activity
SK-MEL-2 [4] = test: Growth inhibition of human SK-MEL-2 cells assessed as cell growth at 10 uM incubated for 48 hrs by sulforhodamine B assay relative to control; format: functional; conditions: SK-MEL-2, 48 h, read-out: Activity
OVCAR-4 = test: Growth inhibition of human OVCAR4 cells assessed as cell growth at 0.01 uM incubated for 48 hrs by sulforhodamine B assay relative to control; format: functional; conditions: OVCAR-4, 48 h, read-out: Activity
SK-MEL-2 [5] = test: Growth inhibition of human SK-MEL-2 cells assessed as cell growth at 1 uM incubated for 48 hrs by sulforhodamine B assay relative to control; format: functional; conditions: SK-MEL-2, 48 h, read-out: Activity
Hs-578T = test: Growth inhibition of human Hs578T cells assessed as cell growth at 0.01 uM incubated for 48 hrs by sulforhodamine B assay relative to control; format: functional; conditions: read-out: Activity
HL-60(TB) [6] = test: Growth inhibition of human HL-60(TB) cells assessed as cell growth at 0.01 uM incubated for 48 hrs by sulforhodamine B assay relative to control; format: functional; conditions: HL-60, 48 h, read-out: Activity
RPMI-8226 = test: Growth inhibition of human RPMI8226 cells assessed as cell growth at 0.01 uM incubated for 48 hrs by sulforhodamine B assay relative to control; format: functional; conditions: RPMI-8226, 48 h, read-out: Activity
U-251 = test: Growth inhibition of human U251 cells assessed as cell growth at 1 uM incubated for 48 hrs by sulforhodamine B assay relative to control; format: functional; conditions: U-251, 48 h, read-out: Activity
OVCAR-5 = test: Growth inhibition of human OVCAR5 cells assessed as cell growth at 0.01 uM incubated for 48 hrs by sulforhodamine B assay relative to control; format: functional; conditions: OVCAR-5, 48 h, read-out: Activity
SW-620 = test: Growth inhibition of human SW620 cells assessed as cell growth at 1 uM incubated for 48 hrs by sulforhodamine B assay relative to control; format: functional; conditions: SW-620, 48 h, read-out: Activity
IGROV-1 = test: Growth inhibition of human IGROV1 cells assessed as cell growth at 100 uM incubated for 48 hrs by sulforhodamine B assay relative to control; format: functional; conditions: IGROV-1, 48 h, read-out: Activity
LOX IMVI [7] = test: Growth inhibition of human LOXIMVI cells assessed as cell growth at 0.01 uM incubated for 48 hrs by sulforhodamine B assay relative to control; format: functional; conditions: read-out: Activity
UO-31 = test: Growth inhibition of human UO31 cells assessed as cell growth at 0.01 uM incubated for 48 hrs by sulforhodamine B assay relative to control; format: functional; conditions: UO-31, 48 h, read-out: Activity
HOP-62 = test: Growth inhibition of human HOP62 cells assessed as cell growth at 0.1 uM incubated for 48 hrs by sulforhodamine B assay relative to control; format: functional; conditions: HOP-62, 48 h, read-out: Activity
MDA-MB-435 [8] = test: Growth inhibition of human MDA-MB-435 cells assessed as cell growth at 0.01 uM incubated for 48 hrs by sulforhodamine B assay relative to control; format: functional; conditions: MDA-MB-435, 48 h, read-out: Activity
NCI-H522 = test: Growth inhibition of human NCI-H522 cells assessed as cell growth at 100 uM incubated for 48 hrs by sulforhodamine B assay relative to control; format: functional; conditions: NCI-H522, 48 h, read-out: Activity
[9] = read-out: LC50 (the source's name)
[10] = read-out: pLC50 (the source's name) (converted)

Compound: COc1cc(Cl)cc(-c2nn(-c3cccc(NC(=O)c4cccc(C(F)(F)F)c4)c3)cc2-c2ccncc2)c1
- GI50 (M14; read-out: GI50): 90 nM
- CC50 (M14; [9]): > 100000 nM
- TGI (M14; read-out: TGI): > 100000 nM
- GI50 (M14; read-out: pGI50 (converted)): 6030 nM
- CC50 (M14; [10]): > 100000 nM
- TGI (M14; read-out: pTGI (converted)): > 100000 nM
- GI50 (SK-MEL-5; read-out: GI50): 5430 nM
- CC50 (SK-MEL-5; [9]): > 100000 nM
- TGI (SK-MEL-5; read-out: TGI): > 100000 nM
- GI50 (SK-MEL-5; read-out: pGI50 (converted)): 5370 nM
- CC50 (SK-MEL-5; [10]): > 100000 nM
- TGI (SK-MEL-5; read-out: pTGI (converted)): > 100000 nM
- growth at 100 µM (MOLT-4): 27%
- growth at 1 µM (NCI-H460): 93%
- growth at 1 µM (ACHN): 54%
- growth at 100 µM (SK-OV-3): 78%
- growth at 0.01 µM (COLO 205): 108%
- growth at 1 µM (OVCAR-8): 93%
- growth at 100 µM (LOX IMVI [1]): 41%
- growth at 100 µM (HL-60(TB) [2]): 49%
- growth at 0.01 µM (UACC-62): 98%
- GI50 (MDA-MB-435 [3]; read-out: GI50): > 100000 nM
- LC50 (MDA-MB-435 [3]; read-out: LC50): > 100000 nM
- TGI (MDA-MB-435 [3]; read-out: TGI): > 100000 nM
- GI50 (MDA-MB-435 [3]; read-out: pGI50 (converted)): > 100000 nM
- LC50 (MDA-MB-435 [3]; read-out: pLC50 (converted)): > 100000 nM
- TGI (MDA-MB-435 [3]; read-out: pTGI (converted)): > 100000 nM
- growth at 0.01 µM (NCI/ADR-RES): 103%
- growth at 0.1 µM (786-0): 97%
- growth at 100 µM (HCT-116): 22%
- growth at 0.01 µM (SK-MEL-28): 105%
- growth at 10 µM (SK-MEL-2 [4]): 56.4%
- growth at 0.01 µM (OVCAR-4): 106%
- growth at 1 µM (SK-MEL-2 [5]): 56%
- growth at 0.01 µM (Hs-578T): 97%
- growth at 0.01 µM (HL-60(TB) [6]): 59%
- growth at 0.01 µM (RPMI-8226): 101%
- growth at 1 µM (U-251): 65%
- growth at 0.01 µM (OVCAR-5): 58%
- growth at 1 µM (SW-620): 107%
- growth at 100 µM (IGROV-1): 70%
- growth at 0.01 µM (LOX IMVI [7]): 100%
- growth at 0.01 µM (UO-31): 58%
- growth at 0.1 µM (HOP-62): 101%
- growth at 0.01 µM (MDA-MB-435 [8]): 98%
- growth at 100 µM (NCI-H522): 18%

Compound: COc1cc(Cl)cc(-c2nn(-c3cccc(NC(=O)Nc4cc(C(F)(F)F)cc(C(F)(F)F)c4)c3)cc2-c2ccncc2)c1
- IC50 (M14): 440 nM
- GI50 (M14; read-out: GI50): 442 nM
- CC50 (M14; [9]): 93.9 nM
- TGI (M14; read-out: TGI): 2160 nM
- GI50 (M14; read-out: pGI50 (converted)): 447 nM
- CC50 (M14; [10]): 9330 nM
- TGI (M14; read-out: pTGI (converted)): 2140 nM
- IC50 (SK-MEL-5): 1140 nM
- GI50 (SK-MEL-5; read-out: GI50): 1140 nM
- CC50 (SK-MEL-5; [9]): 50.4 nM
- TGI (SK-MEL-5; read-out: TGI): 2390 nM
- GI50 (SK-MEL-5; read-out: pGI50 (converted)): 1150 nM
- CC50 (SK-MEL-5; [10]): 5010 nM
- TGI (SK-MEL-5; read-out: pTGI (converted)): 2400 nM
- growth at 100 µM (MOLT-4): -34%
- growth at 1 µM (NCI-H460): 13%
- growth at 1 µM (ACHN): 17%
- growth at 100 µM (SK-OV-3): -73%
- growth at 0.01 µM (COLO 205): 98%
- growth at 1 µM (OVCAR-8): 12%
- growth at 100 µM (HL-60(TB) [2]): -8%
- growth at 0.01 µM (UACC-62): 96%
- IC50 (MDA-MB-435 [3]): 430 nM
- GI50 (MDA-MB-435 [3]; read-out: GI50): 425 nM
- LC50 (MDA-MB-435 [3]; read-out: LC50): 11.5 nM
- TGI (MDA-MB-435 [3]; read-out: TGI): 2030 nM
- GI50 (MDA-MB-435 [3]; read-out: pGI50 (converted)): 427 nM
- LC50 (MDA-MB-435 [3]; read-out: pLC50 (converted)): 11700 nM
- TGI (MDA-MB-435 [3]; read-out: pTGI (converted)): 2040 nM
- growth at 0.01 µM (NCI/ADR-RES): 99%
- growth at 0.1 µM (786-0): 92%
- growth at 100 µM (HCT-116): -88%
- growth at 0.01 µM (SK-MEL-28): 103%
- growth at 10 µM (SK-MEL-2 [4]): -38.1%
- growth at 0.01 µM (OVCAR-4): 93%
- growth at 1 µM (SK-MEL-2 [5]): 40%
- growth at 0.01 µM (Hs-578T): 97%
- growth at 0.01 µM (HL-60(TB) [6]): 92%
- growth at 0.01 µM (RPMI-8226): 93%
- growth at 1 µM (U-251): 11%
- growth at 0.01 µM (OVCAR-5): 99%
- growth at 1 µM (SW-620): 19%
- growth at 100 µM (IGROV-1): -42%
- growth at 0.01 µM (UO-31): 79%
- growth at 0.1 µM (HOP-62): 93%
- growth at 0.01 µM (MDA-MB-435 [8]): 97%
- growth at 100 µM (NCI-H522): -69%
